Data published in PMC7463537, “Synthesis and Evaluation of Antimicrobial and Cytotoxic Activity of Oxathiine-Fused Quinone-Thioglucoside Conjugates of Substituted 1,4-Naphthoquinones” (Molecules, 2020).

How the values were obtained:
S. aureus ATCC 21027 = test: Agar diffusion method, S. aureus; assay type: cell-based, Staphylococcus aureus; set-up: key to Diameter of Zone Inhibition, S. aureus: Zones within 20–40 mm mean strong antibiotic activity; zones up to 20 mm—moderate; ≤10 mm—weak; +—insignificant; conditions: for zone of inhibition at 100 µg/disc: ATCC21027, 24 h
Procedure: (§1) Elyakov Pacific Institute of Bioorganic Chemistry, Far East Branch, Russian Academy of Sciences. Test substances were dissolved in DMSO at concentrations of 1.0, 0.1, and 0.01 mg/mL. All strains were grown on trypticase-soy agar TSA (BBL) at 37 °C. […] After incubation of the dishes at 37 °C for 24 h (for bacteria) and 48 h (for the fungus) at 28 °C, the diameters of the growth inhibition zones of pathogenic microorganisms (mm) were measured, including the diameter of the wells. Commercial antibacterial drugs (vancomicin and gentamicin) and antifungal (clotrimazol) drugs were used as positive controls.

B. cereus ATCC 10702 = test: Agar diffusion method, B. cereus; assay type: cell-based, Bacillus cereus; conditions: for zone of inhibition at 100 µg/disc: ATCC10702, 24 h, 100 µg/well, 24 h, incl. 7 mm well
Procedure: as §1

P. aeruginosa ATCC 27853 = test: Agar diffusion method, P. aeruginosa; assay type: cell-based, Pseudomonas aeruginosa; conditions: for zone of inhibition at 100 µg/disc: ATCC27853, 100 µg/well
Procedure: as §1

E. coli K-12 = test: Agar diffusion method, E. coli; assay type: cell-based, Escherichia coli
Procedure: as §1

C. albicans KMM 453 = test: Agar diffusion method, C. albicans; assay type: cell-based; conditions: Candida albicans, read-out: Diameter of Zone Inhibition, C. albicans; for zone of inhibition at 100 µg/disc: KMM453, 48 h, 100 µg/well, 48 h at 28 °C
Procedure: as §1

[1] = tested on: human cervical cancer (HeLa); test: Cytotoxicity, MTT assay, HeLa cells; conditions: for EC50: Homo sapiens, HeLa, 24 h, read-out: Cytotoxicity (EC50), HeLa; for Selectivity Index (SI), HeLa: SI = EC50 (Jb6 Cl 41-5a normal cells)/EC50 (tumor cells)
[2] = tested on: mouse neuroblastoma (Neuro 2a); test: Cytotoxicity, MTT assay, Neuro 2a cells; conditions: for EC50: N2a, 24 h, read-out: Cytotoxicity (EC50), Neuro 2a; for Selectivity Index (SI), Neuro-2a: SI = EC50 (Jb6 Cl 41-5a normal cells)/EC50 (tumor cells)
[3] = Cytotoxicity, MTT assay, Jb6 Cl 41-5a normal epithelial cells; conditions: mouse, Jb6 Cl 41-5a normal epithelial cells
[4] = tested on: mouse ascites Ehrlich carcinoma; test: Cytotoxicity, nonspecific esterase (FDA) assay, ascites Ehrlich carcinoma cells; conditions: for EC50: Mus musculus, Ehrlich, 24 h, read-out: Cytotoxicity (EC50), Ascites Ehrlich Carcinoma; for Selectivity Index (SI), Ascitic Ehrlich Carcinoma: SI = EC50 (Jb6 Cl 41-5a normal cells)/EC50 (tumor cells)
[5] = Staphylococcus aureus, 100 µg/well, 24 h, incl. 7 mm well, read-out: Diameter of Zone Inhibition, S. aureus
[6] = Bacillus cereus, read-out: Diameter of Zone Inhibition, B. cereus
[7] = Pseudomonas aeruginosa, read-out: Diameter of Zone Inhibition, P. aeruginosa
[8] = Escherichia coli, K12, 100 µg/well, read-out: Diameter of Zone Inhibition, E. coli

SMILES | zone of inhibition at 100 µg/disc (S. aureus ATCC 21027; [5]) | zone of inhibition at 100 µg/disc (B. cereus ATCC 10702; [6]) | zone of inhibition at 100 µg/disc (P. aeruginosa ATCC 27853; [7]) | zone of inhibition at 100 µg/disc (E. coli K-12; [8]) | zone of inhibition at 100 µg/disc (C. albicans KMM 453) | melting point | EC50 [1] | EC50 [2] | EC50 at 24 h [3] | EC50 [4] | Selectivity Index (SI), HeLa [1] | Selectivity Index (SI), Neuro-2a [2] | Selectivity Index (SI), Ascitic Ehrlich Carcinoma [4] | other results
COc1ccc(OC)c2c1C(=O)C1=C(S[C@@H]3OC[C@H](O)[C@H](O)[C@H]3O1)C2=O [Compound 17d, (3S,4S,4aR,12aS)-3,4-Dihydroxy-7,10-dimethoxy-3,4,4a,12a-tetrahydro-2H-naphtho[2,3-b]pyrano[2,3-e][2,5]oxathiine-6,11-dione] | 0 mm | 0 mm | 0 mm | 0 mm | ≤ 10 mm | 317 to 320 °C | > 25 µM | > 25 µM | > 25 µM | > 25 µM |  |  |  | 
COc1c(Cl)c(Cl)c(OC)c2c1C(=O)C1=C(S[C@@H]3O[C@H](CO)[C@@H](O)[C@H](O)[C@H]3O1)C2=O [Compound 18a, (2R,3S,4S,4aR,12aS)-8,9-Dichloro-3,4-dihydroxy-2-hydroxymethyl-7,10-dimethoxy-3,4,4a,12a-tetrahydro-2H-naphtho[2,3-b]pyrano[2,3-e][2,5]oxathiine-6,11-dione] |  | 0 mm | 0 mm | 0 mm | 0 mm | 222 to 224 °C | 10.9 µM | 2.4 µM | 1.5 µM | 8.8 µM | 0.1 | 0.6 | 0.2 | Diameter of Zone Inhibition, S. aureus (S. aureus ATCC 21027; 100 µg/well, 24 h, incl. 7 mm well): +
COc1c(Cl)c(Cl)c(OC)c2c1C(=O)C1=C(S[C@@H]3OC[C@@H](O)[C@H](O)[C@H]3O1)C2=O [Compound 18c, (3R,4S,4aR,12aS)-8,9-Dichloro-3,4-dihydroxy-7,10-dimethoxy-3,4,4a,12a-tetrahydro-2H-naphtho[2,3-b]pyrano[2,3-e][2,5]oxathiine-6,11-dione] | < 20 mm | < 20 mm | 0 mm | 0 mm | 0 mm | 277 to 279 °C | 10.1 µM | 4.1 µM | 3.8 µM | 4.5 µM | 0.4 | 0.9 | 0.8 | Diameter of Zone Inhibition, E. coli (E. coli K-12; 100 µg/well): not active
O=C1C2=C(S[C@@H]3OC[C@@H](O)[C@H](O)[C@H]3O2)C(=O)c2c(O)cccc21 [Compound 19c, (3R,4S,4aR,12aS)-3,4,10-Trihydroxy-3,4,4a,12a-tetrahydro-2H-naphtho[2,3-b]pyrano[2,3-e][2,5]oxathiine-6,11-dione] | 8 ± 1 mm | 10 ± 2 mm | 0 mm | 0 mm | 0 mm | 348 to 350 °C (dec.) | 4.9 µM | 13.3 µM | 5.9 µM | 7.4 µM | 1.2 | 0.4 | 0.8 | 
Clc1ccccc1C(c1ccccc1)(c1ccccc1)n1ccnc1 [Clotrimazol (disk), reference compound] |  |  |  |  |  |  |  |  |  |  |  |  |  | zone of inhibition at 10 µg/disc (C. albicans KMM 453; KMM453, 10 µg (disk)): 15 ± 2 mm
COc1c(Cl)c(Cl)c(OC)c2c1C(=O)C1=C(S[C@@H]3O[C@H](CO)[C@H](O)[C@H](O)[C@H]3O1)C2=O [Compound 18b, (2R,3R,4S,4aR,12aS)-8,9-Dichloro-3,4-dihydroxy-2-(hydroxymethyl)-7,10-dimethoxy-3,4,4a,12a-tetrahydro-2H-naphtho[2,3-b]pyrano[2,3-e][2,5]oxathiine-6,11-dione] | 0 mm | 0 mm | 0 mm | 0 mm | 0 mm | 276 to 279 °C | 8 µM | 2.9 µM | 2.9 µM | 1.1 µM | 0.4 | 1 | 2.6 | 
CNC(C)C1CCC(N)C(OC2C(N)CC(N)C(OC3OCC(C)(O)C(NC)C3O)C2O)O1 (centres unmarked) [Gentamicin (disk), reference compound] |  |  |  |  |  |  |  |  |  |  |  |  |  | zone of inhibition at 10 µg/disc (S. aureus ATCC 21027; Staphylococcus aureus, ATCC21027, 10 µg/well (gentamicin: disk), read-out: Diameter of Zone Inhibition, S. aureus): 25 ± 2 mm; zone of inhibition at 10 µg/disc (B. cereus ATCC 10702; Bacillus cereus, ATCC10702, 10 µg/well (gentamicin: disk), read-out: Diameter of Zone Inhibition, B. cereus): 25 ± 1 mm; zone of inhibition at 10 µg/disc (P. aeruginosa ATCC 27853; Pseudomonas aeruginosa, ATCC27853, 10 µg (disk), read-out: Diameter of Zone Inhibition, P. aeruginosa): 18 ± 2 mm; zone of inhibition at 10 µg/disc (E. coli K-12; Escherichia coli, K12, 10 µg (disk), read-out: Diameter of Zone Inhibition, E. coli): 22 ± 3 mm
COc1c(Cl)c(Cl)c(OC)c2c1C(=O)C1=C(S[C@@H]3OC[C@H](O)[C@H](O)[C@H]3O1)C2=O [Compound 18d, (3S,4S,4aR,12aS)-8,9-Dichloro-3,4-dihydroxy-7,10-dimethoxy-3,4,4a,12a-tetrahydro-2H-naphtho[2,3-b]pyrano[2,3-e][2,5]oxathiine-6,11-dione] | < 20 mm | < 20 mm | 0 mm | 0 mm | 0 mm | 286 to 289 °C | 8.7 µM | 2.8 µM | 4.3 µM | 4.1 µM | 0.5 | 1.5 | 1 | Diameter of Zone Inhibition, E. coli (E. coli K-12; 100 µg/well): not active
CN[C@H](CC(C)C)C(=O)N[C@H]1C(=O)N[C@@H](CC(N)=O)C(=O)N[C@H]2C(=O)N[C@H]3C(=O)N[C@H](C(=O)N[C@H](C(=O)O)c4cc(O)cc(O)c4-c4cc3ccc4O)[C@H](O)c3ccc(c(Cl)c3)Oc3cc2cc(c3O[C@@H]2O[C@H](CO)[C@@H](O)[C@H](O)[C@H]2O[C@H]2C[C@](C)(N)[C@H](O)[C@H](C)O2)Oc2ccc(cc2Cl)[C@H]1O [Vancomicin (disk), reference compound] |  |  |  |  |  |  |  |  |  |  |  |  |  | Diameter of Zone Inhibition, S. aureus (S. aureus ATCC 21027; 30 µg (disk)): 20 ± 2 mm; Diameter of Zone Inhibition, B. cereus (B. cereus ATCC 10702; 30 µg (disk)): 20 ± 3 mm; Diameter of Zone Inhibition, P. aeruginosa (P. aeruginosa ATCC 27853; 30 µg (disk)): 0 mm; Diameter of Zone Inhibition, E. coli (E. coli K-12; 30 µg (disk)): 0 mm
